Where a name gives a salt, the structure may show the parent alone.
Legend:
[1] = target: T1, human ETA receptors (Homo sapiens, UniProt P25101); assay: Endothelin binding inhibition, Binding Test #1: inhibition of binding to ETA receptors (TE 671 cell membranes); settings: relative to N-(4-chloro-3-methyl-5-isoxazolyl)-2-{[3,4-(methylenedioxy)-6-methylphenyl)acetyl]-thiophene-3-sulfonamide (= 1.0)
T1 construct: endogenous in cells; host or cells: TE 671 cells (ATCC HTB 139), membrane preparation
T1 sequence (P25101 21-427): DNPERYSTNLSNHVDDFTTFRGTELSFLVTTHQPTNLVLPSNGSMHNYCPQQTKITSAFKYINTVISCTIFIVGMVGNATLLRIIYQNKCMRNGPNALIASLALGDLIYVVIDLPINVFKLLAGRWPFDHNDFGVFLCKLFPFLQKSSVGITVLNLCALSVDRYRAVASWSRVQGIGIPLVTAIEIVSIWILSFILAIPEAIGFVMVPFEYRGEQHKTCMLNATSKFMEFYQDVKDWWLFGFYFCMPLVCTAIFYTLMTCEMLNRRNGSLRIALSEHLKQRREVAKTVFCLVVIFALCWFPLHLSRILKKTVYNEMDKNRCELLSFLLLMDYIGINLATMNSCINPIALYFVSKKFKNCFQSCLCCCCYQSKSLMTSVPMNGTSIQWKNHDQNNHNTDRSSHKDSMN
From the text: Compounds that are potential endothelin antagonists are identified by testing their ability to compete with ^125I-labeled ET-1 for binding to human ETA receptors or ETB receptors present on isolated cell membranes. The effectiveness of the test compound as an antagonist or agonist of the biological tissue response of endothelin can also be assessed by measuring the effect on endothelin induced contraction of isolated rat thoracic aortic rings. The ability of the compounds to act as antagonists or agonists for ETB receptors can be assess by testing the ability of the compounds are to inhibit endothelin-1 induced prostacyclin release from cultured bovine aortic endothelial cells.
A. Endothelin Binding Inhibition—Binding Test #1: Inhibition of Binding to ETA Receptors
TE 671 cells (ATCC Accession No. HTB 139) express ETA receptors. These cells were grown to confluence in T-175 flasks. Cells from multiple flasks were collected by scraping, pooled and centrifugedfor 10 min at 190×g. The cells were resuspended in phosphate buffered saline (PBS) containing 10 mM EDTA using a Tenbroeck homogenizer. The suspension was centrifuged at 4° C. at 57,800×g for 15 min, the pellet was resuspended in 5 ml of buffer A (5 mM HEPES buffer, pH 7.4 containing aprotinin (100 KIU/ml)) and then frozen and thawed once. 5 ml of Buffer B (5 mM HEPES Buffer, pH 7.4 containing 10 mM MnCl2 and 0.001% deoxyribonuclease Type 1) was added, the suspension mixed by inversion and then incubated at 37° C. for 30 minutes. The mixture was centrifuged at 57,800×g as described above, the pellet washed twice with buffer A and then resuspended in buffer C (30 mM HEPES buffer, pH 7.4 containing aprotinin (100 KIU/ml) to give a final protein concentration of 2 mg/ml and stored at −70° C. until use.
The membrane suspension was diluted with binding buffer (30 mM HEPES buffer, pH 7.4 containing 150 mM NaCl, 5 mM MgCl2, 0.5% Bacitracin) to a concentration of 8 μg/50 μl. ^125I-endothelin-1 (3,000 cpm, […]) was added to 50 μL of either: (A) endothelin-1 (for non specific binding) to give a final concentration 80 nM); (B) binding buffer (for total binding); or (C) a test compound (final concentration 1 nM to 100 μM). The membrane suspension (50 μL), containing up to 8 μg of membrane protein, was added to each of (A), (B), or (C). Mixtures were shaken, and incubated at 4° C. for 16-18 hours, and then centrifuged at 4° C. for 25 min at 2,500×g. Alternatively, the incubation was conducted at 24° C. […] This, must be kept in mind when comparing IC50 concentrations among compounds provided herein.
The supernatant, containing unbound radioactivity, was decanted and the pellet counted on a Genesys multiwell gamma counter. The degree of inhibition of binding (D) was calculated according to the following equation: [formula]
Each test was generally performed in triplicate.

melting point | ETA ACTIVITY (ETA antagonist activity relative to reference compound) [1] | SMILES
152 to 155 °C |  | CCCS(=O)(=O)c1cc(C)cc(C)c1NC(=O)c1sccc1S(=O)(=O)Nc1onc(C)c1Cl [Compound 48, 3-{[(4-chloro-3-methyl-5-isoxazolyl)amino]sulfonyl)-N-[2,4-dimethyl-6-(propylsulfonyl)phenyl]-2-thiophenecarboxamide]
 | 0.05 | CC(=O)c1cc2c(cc1NC(=O)c1sccc1S(=O)(=O)Nc1onc(C)c1C)OCO2 [3-{[(3,4-dimethyl-5-isoxazolyl)amino]sulfonyl}-N-(2-acetyl-4,5-methylenedioxyphenyl)-2-thiophenecarboxamide]
140 to 145 °C | 23.6 | CO/N=C(\C)c1cc(C)cc(C)c1NC(=O)c1sccc1S(=O)(=O)Nc1onc(C)c1Cl [Compound 22, 3-{[(4-chloro-3-methyl-5-isoxazolyl)amino]sulfonyl}-N-{2,4-dimethyl-6-[(methyloxy)ethanimidoyl]phenyl}-2-thiophene carboxamide]
 | 1.04 | Cc1cc(C)c(NC(=O)c2sccc2S(=O)(=O)Nc2onc(C)c2Cl)c(C(N)=O)c1 [3-{[(4-chloro-3-methyl-5-isoxazolyl)amino]sulfonyl}-N-(2-carbamoyl-4,6-dimethylphenyl)-2-thiophenecarboxamide]
 | 6.4 | Cc1cc(C)c(CC(=O)c2sccc2S(=O)(=O)Nc2onc(C)c2Cl)c(C)c1 [3-{[(4-chloro-3-methyl-5-isoxazolyl)amino]sulfonyl}-2-(2,4,6-trimethylphenylacetyl)thiophene]
 | 14.4 | Cc1cc(C)c(NC(=O)c2sccc2S(=O)(=O)Nc2onc(C)c2Cl)c(C(=O)N(C)C)c1 [Compound 20, 3-{[(4-chloro-3-methyl-5-isoxazolyl)amino]sulfonyl}-N-{2-[(dimethylamino)carbonyl]-4,6-dimethylphenyl)-2-thiophene carboxamide]
223 to 225 °C | 103.8 | CC(=O)c1c(C)c(C)cc(C)c1NC(=O)c1sccc1S(=O)(=O)Nc1onc(C)c1Cl [Compound 30, N-(2-acetyl-3,4,6-trimethylphenyl)-3-{[(4-chloro-3-methyl-5-isoxazolyl)amino]sulfonyl}-2-thiophenecarboxamide]
205 to 207 °C | 1.1 | Cc1cc(-c2ncco2)cc(C)c1NC(=O)c1sccc1S(=O)(=O)Nc1onc(C)c1Cl [Compound 52, 3-{[(4-chloro-3-methyl-5-isoxazolyl)amino]sulfonyl}-N-[2,6-dimethyl-4-(1,3-oxazol-2-yl)phenyl]-2-thiophenecarboxamide]
169 to 174 °C |  | Cc1cc(C)c(OS(=O)(=O)N(C)C)c(C)c1NC(=O)c1sccc1S(=O)(=O)Nc1onc(C)c1Cl [Compound 24, 3-{[(3-{[(4-chloro-3-methyl-5-isoxazolyl)amino]sulfonyl}-2-thiophenyl)carbonyl]amino}-2,4,6-trimethylphenyl-N,N-dimethylsulfamate]
170 to 175 °C | 2.0 | Cc1nc(C)c(NC(=O)c2sccc2S(=O)(=O)Nc2onc(C)c2Cl)c(C)n1 [Compound 28, 3-{[(4-chloro-3-methyl-5-isoxazolyl)amino]sulfonyl}-N-(2,4,6-trimethyl-5-pyrimidinyl)-2-thiophenecarboxamide]
 | 18.6 | Cc1cc(C)c(NC(=O)c2sccc2S(=O)(=O)Nc2onc(C)c2C)c(C#N)c1C [Compound 9, N-(2-cyano-3,4,6-trimethylphenyl)-3-{[(3,4-dimethyl-5-isoxazolyl)amino]sulfonyl}-2-thiophenecarboxamide]
147 to 154 °C |  | Cc1cc(C)c(NC(=O)c2sccc2S(=O)(=O)Nc2onc(C)c2Cl)c(C(C)O)c1 (stereo not drawn) (as salt: Na) [Compound 18, 3-{[(4-chloro-3-methyl-5-isoxazolyl)amino]sulfonyl}-N-[2-(1-hydroxyethyl)-4,6-dimethylphenyl]-2-thiophene carboxamide]
163 to 167 °C | 0.1 | CCCc1c(O)c(C(C)=O)cc(C(C)=O)c1NC(=O)c1sccc1S(=O)(=O)Nc1onc(C)c1Cl [Compound 36]
 | 55.7 | Cc1cc(C)c(NC(=O)c2sccc2S(=O)(=O)Nc2onc(C)c2Cl)c(C#N)c1C [Compound 32, 3-{[(4-chloro-3-methyl-5-isoxazolyl)amino]sulfonyl}-N-(2-cyano-3,4,6-trimethylphenyl)-2-thiophenecarboxamide]
 | 26.4 | Cc1cc(C)c(NC(=O)c2sccc2S(=O)(=O)Nc2onc(C)c2Cl)c(C(C)O)c1 (stereo not drawn) [Compound 18, 3-{[(4-chloro-3-methyl-5-isoxazolyl)amino]sulfonyl}-N-[2-(1-hydroxyethyl)-4,6-dimethylphenyl]-2-thiophene carboxamide]
174 to 176 °C | 2.7 | Cc1cc(C)c(NC(=O)c2sccc2S(=O)(=O)Nc2onc(C)c2Cl)c(C(=O)N(C)CC(C)(C)C)c1 [Compound 40, 3-{[(4-chloro-3-methyl-5-isoxazolyl)amino]sulfonyl}-N-(2,4-dimethyl-6-{[methyl(2,2-dimethylpropyl)amino]carbonyl}phenyl)-2-thiophenecarboxamide]
 | 0.15 | CC(=O)c1cc2c(cc1NC(=O)c1sccc1S(=O)(=O)Nc1onc(C)c1Cl)OCO2 [3-{[(4-chloro-3-methyl-5-isoxazolyl)amino]sulfonyl}-N-(2-acetyl-4,5-methylenedioxyphenyl)-2-thiophenecarboxamide]
152 to 154 °C | 3.8 | CCc1cc(C)cc(C)c1NC(=O)c1sccc1S(=O)(=O)Nc1onc(C)c1Cl [Compound 50, 3-{[(4-chloro-3-methyl-5-isoxazolyl)amino]sulfonyl}-N-(2-ethyl-4,6-dimethylphenyl)-2-thiophenecarboxamide]
 | 0.05 | Cc1cc(C)c(NC(=O)c2sccc2S(=O)(=O)Nc2onc(C)c2Cl)c(C(=O)O)c1 [3-{[(4-chloro-3-methyl-5-isoxazolyl)amino]sulfonyl}-N-(2-carboxyl-4,6-dimethylphenyl)-2-thiophenecarboxamide]
 | 4.7 | COC(=O)c1c(C)cc(C)c(NC(=O)c2sccc2S(=O)(=O)Nc2onc(C)c2Cl)c1C [3-{[(4-chloro-3-methyl-5-isoxazolyl)amino]sulfonyl}-N-(3-methoxycarbonyl-2,4,6-trimethylphenyl)-2-thiophenecarboxamide]
 | 2.4 | Cc1cc(C)c(NC(=O)c2sccc2S(=O)(=O)Nc2onc(C)c2Cl)c(C)c1 [3-{[(4-chloro-3-methyl-5-isoxazolyl)amino]sulfonyl}-N-(2,4,6-trimethylphenyl)-2-thiophenecarboxamide]
155 to 158 °C | 9.4 | Cc1cc(C)c(OCC2CC2)c(C)c1NC(=O)c1sccc1S(=O)(=O)Nc1onc(C)c1Cl [Compound 26, 3-{[(4-chloro-3-methyl-5-isoxazolyl)amino]sulfonyl}-N-{3-[(cyclopropylmethyl)oxy]-2,4,6-trimethylphenyl}-2-thiophenecarboxamide]

— patent publication US6686382B2, “Sulfonamides and derivatives thereof that modulate the activity of endothelin” (Encysive Pharmaceuticals Inc., priority 1999, dated 2004)
